Experimental data as given in ChEMBL document CHEMBL5528064, “Invention of MK-7845, a SARS-CoV-2 3CL Protease Inhibitor Employing a Novel Difluorinated Glutamine Mimic” (J Med Chem, 2024).

What was measured:
SARS-CoV-2 [1] = assay: Antiviral activity against replicon RNA harboring SARS-CoV-2 infected in human A549 cells assessed as inhibition of viral growth; format: functional, organism-based; conditions: Severe acute respiratory syndrome coronavirus 2, A549
SARS-CoV-2 [2] = assay: Antiviral activity against replicon RNA harboring SARS-CoV-2 infected in human A549 cells assessed as inhibition of viral growth measured 40 hrs post treatment; format: functional, organism-based; conditions: Severe acute respiratory syndrome coronavirus 2, A549, 40 h
SARS-CoV-2 [3] = assay: Antiviral activity against SARS-CoV-2 Omicron B.1.1.529 harboring 3CLpro R346K mutant infected in human A549-hACE2-TMPRSS2 cells assessed as inhibition of virus induced cytopathic effect incubated for 72 hrs by celltiter glo assay; format: functional, organism-based, Severe acute respiratory syndrome coronavirus 2
[4] = Inhibition of SARS-CoV-2 Omicron 3CLpro P132H mutant expressed in Escherichia coli (DE3) competent cells using CP488-ESATLQSGLRKAK-(CPQ2)-NH2 as substrate preincubated for 30 mins followed by substrate addition and measured after 4 hrs by FRET assay; parameters: species or system Severe acute respiratory syndrome coronavirus 2

| SMILES | IC50 (SARS-CoV-2 [2]) [nM] | other results |
| --- | --- | --- |
| CC(C)(C)NC(=O)N[C@H](C(=O)N1C[C@H]2[C@@H]([C@H]1C(=O)N[C@@H](C[C@@H]1CCNC1=O)C(=O)C(N)=O)C2(C)C)C(C)(C)C |  | IC50 (SARS-CoV-2 [1]): 7.5 µM |
| COC(=O)N[C@H](C(=O)N1CCC2(CC2)C[C@H]1C(=O)N[C@@H](CCC(C)(F)F)C(=O)C(=O)NC1CC1)C(C)(C)C | 20 |  |
| COC(=O)N[C@H](C(=O)N1CC[C@@H](C(F)(F)F)C[C@H]1C(=O)N[C@@H](CCC(C)(F)F)C(=O)C(=O)NC1CC1)C(C)(C)C | 19 |  |
| COC(=O)N[C@H](C(=O)N1C[C@@H]2CCC[C@@H]2[C@H]1C(=O)N[C@@H](CCC(C)(F)F)C(=O)C(=O)NC1CC1)C(C)(C)C | 18 |  |
| COC(=O)N[C@H](C(=O)N1C[C@H]2[C@@H]([C@H]1C(=O)N[C@@H](CCC(C)(F)F)C(=O)C(=O)NC1CC1)C21CCOCC1)C(C)(C)C | 32 |  |
| COC(=O)N[C@H](C(=O)N1CC2(C[C@H]1C(=O)N[C@@H](CCC(C)(F)F)C(=O)C(=O)NC1CC1)CC2(F)F)C(C)(C)C (stereo not given in full) | 33 |  |
| CNC(=O)C(=O)[C@H](CCC(C)(F)F)NC(=O)[C@@H]1C[C@H](C(F)(F)F)CCN1C(=O)[C@@H](NC(=O)OC)C(C)(C)C | 12 |  |
| CNC(=O)C(=O)[C@H](CCC(C)(F)F)NC(=O)[C@@H]1[C@H]2CCC[C@H]2CN1C(=O)[C@@H](NC(=O)OC)C(C)(C)C | 15 | IC50 (SARS-CoV-2 [3]): 215 nM; IC50 [4]: 15 nM |
